Conditions: Liquid, Vibrating tube method

CCC(C)(C)C [2,2-dimethylbutane]
mass density [kg/m3]
Conditions | 283.15 K | 288.15 K | 293.15 K | 298.15 K | 303.15 K | 308.15 K | 313.15 K | 318.15 K | 323.15 K | 328.15 K
100 kPa | 658.57 | 653.96 | 649.25 | 644.46 | 639.75 | 634.86 | 630.04 | 625.06 | 620.03 | –
2000 kPa | 660.76 | 656.25 | 651.6 | 646.95 | 642.26 | 637.48 | 632.76 | 627.98 | 623.17 | 618.2
5000 kPa | 664.07 | 659.62 | 655.12 | 650.7 | 646.07 | 641.54 | 637.06 | 632.33 | 627.74 | 623.02
7000 kPa | 666.19 | 661.74 | 657.45 | 653.04 | 648.58 | 644.04 | 639.66 | 635.14 | 630.61 | 626.02
10000 kPa | 669.19 | 664.88 | 660.66 | 656.38 | 652.04 | 647.69 | 643.44 | 639.02 | 634.54 | 630.26
20000 kPa | 678.5 | 674.51 | 670.51 | 666.62 | 662.53 | 658.58 | 654.67 | 650.69 | 646.65 | 642.58
30000 kPa | 686.83 | 683.05 | 679.25 | 675.66 | 671.8 | 668.08 | 664.53 | 660.78 | 656.94 | 653.14
40000 kPa | 694.31 | 690.77 | 687.12 | 683.71 | 680.03 | 676.55 | 673.1 | 669.72 | 666.02 | 662.51
50000 kPa | 701.27 | 697.81 | 694.34 | 691.09 | 687.56 | 684.38 | 680.94 | 677.73 | 674.2 | 670.88
60000 kPa | 707.71 | 704.32 | 701.07 | 697.88 | 694.57 | 691.41 | 688.22 | 685.05 | 681.7 | 678.64
65000 kPa | 710.76 | 707.61 | 704.25 | 701.14 | 697.92 | 695.23 | 691.61 | 688.58 | 685.35 | 682.59

CC(C)C(C)C [2,3-dimethylbutane]
mass density [kg/m3]
Conditions | 283.15 K | 288.15 K | 293.15 K | 298.15 K | 303.15 K | 308.15 K | 313.15 K | 318.15 K | 323.15 K | 328.15 K
100 kPa | 670.76 | 666.22 | 661.58 | 657 | 652.31 | 647.61 | 642.78 | 638.08 | 633.18 | 628.26
2000 kPa | 672.72 | 668.35 | 663.76 | 659.21 | 654.73 | 650.13 | 645.28 | 640.8 | 636.04 | 631.14
5000 kPa | 675.8 | 671.5 | 667.04 | 662.62 | 658.23 | 653.82 | 649.18 | 644.77 | 640.11 | 635.61
7000 kPa | 677.77 | 673.5 | 669.15 | 664.81 | 660.39 | 656.12 | 651.62 | 647.3 | 642.73 | 638.3
10000 kPa | 680.57 | 676.37 | 672.12 | 667.97 | 663.63 | 659.42 | 655.04 | 650.89 | 646.47 | 642.27
20000 kPa | 689.26 | 685.39 | 681.36 | 677.49 | 673.54 | 669.63 | 665.61 | 661.8 | 657.61 | 653.85
30000 kPa | 697.12 | 693.43 | 689.64 | 686.05 | 682.15 | 678.59 | 674.74 | 671.23 | 667.06 | 663.86
40000 kPa | 704.27 | 700.77 | 697.12 | 693.73 | 690.01 | 686.72 | 683.04 | 679.58 | 676.08 | 672.8
50000 kPa | 710.91 | 707.56 | 704.07 | 700.78 | 697.16 | 694.02 | 690.56 | 687.47 | 684.13 | 680.68
60000 kPa | 717.08 | 713.85 | 710.4 | 707.39 | 703.95 | 700.83 | 697.4 | 694.5 | 691.19 | 688.05
65000 kPa | 720.09 | 716.77 | 713.55 | 710.52 | 707.12 | 704.06 | 700.79 | 697.71 | 694.58 | 691.47

CCCC(C)C [2-methylpentane]
mass density [kg/m3]
Conditions | 283.15 K | 288.15 K | 293.15 K | 298.15 K | 303.15 K | 308.15 K | 313.15 K | 318.15 K | 323.15 K | 328.15 K
100 kPa | 662.38 | 657.8 | 653.28 | 648.63 | 643.96 | 639.25 | 634.49 | 629.65 | 624.76 | 619.82
2000 kPa | 664.49 | 659.95 | 655.38 | 651 | 646.27 | 641.65 | 637.11 | 632.32 | 627.48 | 622.75
5000 kPa | 667.45 | 663.16 | 658.76 | 654.32 | 649.83 | 645.36 | 640.96 | 636.32 | 631.78 | 627.22
7000 kPa | 669.44 | 665.17 | 660.81 | 656.61 | 652.12 | 647.77 | 643.31 | 638.86 | 634.39 | 629.87
10000 kPa | 672.23 | 668.05 | 663.8 | 659.71 | 655.36 | 651.1 | 646.93 | 642.49 | 638.24 | 633.86
20000 kPa | 680.99 | 677.13 | 673.11 | 669.38 | 665.3 | 661.38 | 657.45 | 653.46 | 649.56 | 645.47
30000 kPa | 689.02 | 685.21 | 681.56 | 677.93 | 673.98 | 670.38 | 666.76 | 663.07 | 659.4 | 655.55
40000 kPa | 696.18 | 692.59 | 689.05 | 685.62 | 682.03 | 678.4 | 675.03 | 671.49 | 667.99 | 664.47
50000 kPa | 702.82 | 699.4 | 695.95 | 692.66 | 689.27 | 685.81 | 682.68 | 679.17 | 675.91 | 672.49
60000 kPa | 708.98 | 705.61 | 702.39 | 699.21 | 695.84 | 692.62 | 689.53 | 686.27 | 683.16 | 679.93
65000 kPa | 711.97 | 708.71 | 705.49 | 702.34 | 699.14 | 695.97 | 692.86 | 689.7 | 686.56 | 683.41

From the NIST ThermoML archive (doi:10.1016/j.fluid.2012.11.013)
